Molecules are shown by their SMILES. pEC50: −log10 of the molar value. Where a SMILES comes first, the peptide text is derived from it. [ ]: non-standard residue; d: D form. NMeH = CN[C@@H](Cc1c[nH]cn1)C(=O)O; Gly(N-CH2CH2OH) = O=C(O)CNCCO; NMeL = CN[C@@H](CC(C)C)C(=O)O Some results are limits rather than exact numbers.

This series deals with A/Parma/24/09 H1N1 virus. Conditions: for pEC50: read-out: EC50 (concentration that reduced cytopathic effect by 50%). On the technique in general: Protection from cytopathic effect is a common read-out in antiviral testing.

`CC(=O)N[C@@H](CO)C(=O)N(C)[C@@H](CC(C)C)C(=O)N[C@@H](CC(=O)O)C(=O)N[C@@H](CS)C(N)=O` [Peptide 4, S(N-Me)LDC] (Ac-S[NMeL]DC-NH2): the “SI (ratio of CC50 and EC50)” value is on record as >2.9 × 10^5; the pEC50 is 10.07.

Consider `CC(=O)N[C@@H](CO)C(=O)N[C@@H](CCCCN)C(=O)N(C)[C@@H](Cc1c[nH]cn1)C(=O)N[C@@H](CO)C(N)=O` [Peptide 9, SK(N-Me)HS] (Ac-SK[NMeH]S-NH2), for which the “SI (ratio of CC50 and EC50)” value is >1.78 × 10^3; the pEC50 is 9.85.

`CC(=O)N[C@@H](CO)C(=O)N[C@@H](CCCCN)C(=O)N[C@@H](Cc1c[nH]cn1)C(=O)N(CCO)CC(N)=O` [Peptide 18, SKHNhS] (Ac-SKH[Gly(N-CH2CH2OH)]-NH2): the “SI (ratio of CC50 and EC50)” value is on record as >5 × 10^5; the pEC50 was 10.30.

Source of the values: paper PMC10531517, “Rational Design of Novel Peptidomimetics against Influenza A Virus: Biological and Computational Studies” (International Journal of Molecular Sciences, 2023).
